Here are results for 17 compounds from patent publication EP0829478A2, “N-Benzylimidazolium and N-benzyltriazolium derivatives, their preparation and their use as antifungal and antimycotic agents” (F. HOFFMANN-LA ROCHE AG, priority 1996, dated 1998).

Molecules are shown by their SMILES. Structures can show the parent of a compound that is named as a salt. Where two headings read alike, the source gives them in different places. Some results are limits rather than exact numbers.

Series [1] is described as follows: Water solubility (Table 1). Format: physicochemical.
Series [2] is described as follows: Conversion of the azolium compounds to ketoconazole / itraconazole on incubation in human plasma. It is filed as in vitro ADME. Conditions: 10µg/ml, 37°C; for metabolised at 5 min / remaining at 5 min: incubation time 5 min. The protocol: The compounds of formula I were incubated with human plasma at a concentration of 10µg/ml at 37°C for up to 120 min.
Another series relates to Candida albicans. Briefly: Systemic candidiasis model in rats, ED50. Format: in vivo. The settings on record: 336 h. From the text: (§1) Male Fisher rats, strain F344/DuCrj, were employed for experimental infection models such as systemic candidiasis, systemic aspergillosis and pulmonary aspergillosis model. Immunocompetent 4 weeks old rats were used for systemic candidiasis or systemic aspergillosis which occurred her infection with Candida albicans conidia of 5x10^6/rat or with Aspergillus fumigatus conidia of 6x10^5/rat via tail vein. Otherwise for pulmonary aspergillosis model, rats had been immunosuppressed with cortisone acetate treatments prior to infection with 2x10^5/rat intratrachially. Treatments were given twice on the first day and once daily on following 4 days both for systemic and pulmonary aspergillosis (Ib.i.+4q.d.), for systemic candidiasis rats were treated at 0, 4, 24, and 48 h after infection (Ib.i.d.+2q.d.).

Series [3] has as its system Aspergillus fumigatus. Briefly: Pulmonary aspergillosis model in immunosuppressed rats, ED50. Format: in vivo. The settings on record: 336 h.
Excerpt: as §1

The subject of series [4] is Aspergillus fumigatus. Briefly: Systemic aspergillosis model in rats, ED50. It is filed as in vivo. Conditions: 336 h.
Excerpt: as §1

[5] abbreviates: solvent a = distilled water, read-out: solubility.
The mark [6] stands for this setting: ketoconazole formed, read-out: Observed (%) KCZ.
Where [7] appears, read: remaining parent compound, read-out: Observed (%) Comp. I.
Where [8] appears, read: mcilvaine buffer, pH 8.02, aqueous buffer.
Where [9] appears, read: iv, read-out: Effective dose 50% (ED50) Systemic candidiasis i.v., male Fisher rats F344/DuCrj, immunocompetent, i.v., treated at 0, 4, 24 and 48 h after infection, determined on day 14 after infection.
[10] abbreviates: po, read-out: Effective dose 50% (ED50) Systemic candidiasis p.o., male Fisher rats F344/DuCrj, immunocompetent, p.o., treated at 0, 4, 24 and 48 h after infection, determined on day 14 after infection.
The mark [11] stands for this setting: iv, read-out: Effective dose 50% (ED50) Pulmonay aspergillosis i.v., male Fisher rats F344/DuCrj immunosuppressed with cortisone acetate, i.v., twice on first day, once daily on following 4 days, determined on day 14 after infection.
[12] abbreviates: po, read-out: Effective dose 50% (ED50) Pulmonay aspergillosis p.o., male Fisher rats F344/DuCrj immunosuppressed with cortisone acetate, p.o., twice on first day, once daily on following 4 days, determined on day 14 after infection.
Where [13] appears, read: iv, read-out: Effective dose 50% (ED50) Systemic aspergillosis i.v., male Fisher rats F344/DuCrj, immunocompetent, i.v., twice on first day, once daily on following 4 days, determined on day 14 after infection.
[14] abbreviates: po, read-out: Effective dose 50% (ED50) Systemic aspergillosis p.o., male Fisher rats F344/DuCrj, immunocompetent, p.o., twice on first day, once daily on following 4 days, determined on day 14 after infection.

Turning to `CC(=O)Oc1c(C)cc(C[n+]2ccn(CC(OCc3ccc(Cl)cc3Cl)c3ccc(Cl)cc3Cl)c2)cc1C` (racemic) [Example 7, dl-1-(4-Acetoxy-3,5-dimethyl-benzyl)-3-[2-(2,4-dichloro-benzyloxy)-2-(2,4-dichloro-phenyl)-ethyl]-3H-imidazol-1-ium bromide], the solubility in series [1] (setting [5]) was over 1000 µg/mL.
For the compound `CCCCCC(=O)Oc1c(C)cc(C[n+]2cnn(CC3(c4ccc(Cl)cc4Cl)OCC(COc4ccc(N5CCN(c6ccc(-n7cnn(C(C)CC)c7=O)cc6)CC5)cc4)O3)c2)cc1C` (racemic) [Example 13, dl-1-[4-(4-{4-[4-(1-sec-butyl-5-oxo-1,5-dihydro-[1,2,4]triazol-4-yl)-phenyl]-piperazin-1-yl}-phenoxymethyl)-2-(2,4-dichloro-phenyl)-[1,3]dioxolan-2-ylmethyl]-4-(4-hexanoyloxy-3,5-dimethyl-benzyl)-1H-[1,2,4]triazol-4-ium methanesulfonate], the solubility in series [1] (mcilvaine buffer, pH 8.02, aqueous buffer, solvent b = Mellvaine buffer(pH8.02), read-out: solubility) came to 500 µg/mL.
On to `CC(=O)N1CCN(c2ccc(OC[C@H]3CO[C@](Cn4cc[n+](Cc5cc(C)c(OC(=O)C(C)C)c(C)c5)c4)(c4ccc(Cl)cc4Cl)O3)cc2)CC1.[Br-]` (relative stereo) [Example 5, 3-[(2R*,4S*)-4-[4-(4-Acetyl-piperazin-1-yl)-phenoxymethyl]-2-(2,4-dichloro-phenyl)-[1,3]dioxolan-2-ylmethyl]-1-(4-isobutyryloxy-3,5-dimethyl-benzyl)-3H-imidazol-1-ium bromide], for which the solubility in series [1] (distilled water, water) was over 1000 µg/mL.
Turning to `CC(=O)Oc1ccc(C[n+]2ccn(C[C@]3(c4ccc(Cl)cc4Cl)OC[C@H](COc4ccc(N5CCN(C(C)=O)CC5)cc4)O3)c2)cc1` (relative stereo) [Example 9, 1-(4-Acetoxybenzyl)-3-[(2R*,4S*)-4-[4-(4-acetylpiperazin-1-yl)phenoxymethyl]-2-(2,4-dichlorophenyl)-[1,3]dioxolan-2-ylmethyl]-3H-imidazol-1-ium bromide], the metabolised at 5 min in series [2] (setting [6]) amounted to 89%. In addition, the remaining at 5 min in series [2] (setting [7]) is under 5%.
With `CC(=O)Oc1ccc(C[n+]2ccn(C[C@]3(c4ccc(Cl)cc4Cl)OC[C@H](COc4ccc(N5CCN(C(C)=O)CC5)cc4)O3)c2)cc1C` (relative stereo) [Example 11, 1-(4-Acetoxy-3-methyl-benzyl)-3-[(2R*,4S*)-4-[4-(4-acetyl-piperazin-1-yl)-phenoxymethyl]-2-(2,4-dichloro-phenyl)-[1,3]dioxolan-2-ylmethyl]-3H-imidazol-1-ium bromide], the metabolised at 5 min in series [2] (setting [6]) was determined as 100%. Moreover, the remaining at 5 min in series [2] (setting [7]) is under 5%.
With `CCC(C)n1ncn(-c2ccc(N3CCN(c4ccc(OCC5COC(Cn6c[n+](Cc7cc(C)c(OC(C)=O)c(C)c7)cn6)(c6ccc(Cl)cc6Cl)O5)cc4)CC3)cc2)c1=O` (centres unmarked) [Example 1], in series [2] (itraconazole formed, incubation time 60 min, read-out: Observed (%) ICZ), the metabolised at 1 h amounted to 28%. Also, in series [2] (remaining parent compound, incubation time 60 min, read-out: Observed (%) Comp. I), the remaining at 1 h was determined as 47%.
On to `CCC(C)n1ncn(-c2ccc(N3CCN(c4ccc(OCC5COC(Cn6c[n+](Cc7cc(C)c(OC(=O)c8cccnc8)c(C)c7)cn6)(c6ccc(Cl)cc6Cl)O5)cc4)CC3)cc2)c1=O.[Br-]` (centres unmarked) [Example 2, 4-(4-(Pyridine-3-carbonyloxy)-3,5-dimethylbenzyl)-1-[4-(4-{4-(4-(1-(2-butyl)-5-oxo-1,5-dihydro-[1,2,4]triazol-4-yl)phenyl]piperazin-1-yl}phenoxymethyl)-2-(2,4-dichlorophenyl)-[1,3]dioxolan-2-ylmethyl]-1H-[1,2,4]triazol-4-ium bromide], for which, in series [1] (setting [8]), the solubility came out at 400 µg/mL.
On the same count and under the same terms, the result for `CCC(C)n1ncn(-c2ccc(N3CCN(c4ccc(OCC5COC(Cn6c[n+](Cc7cc(C)c(OC(=O)c8ccccc8)c(C)c7)cn6)(c6ccc(Cl)cc6Cl)O5)cc4)CC3)cc2)c1=O.[Br-]` (centres unmarked) [Example 3, 4-(4-Benzoyloxy-3,5-dimethylbenzyl)-1-[4-(4-{4-[4-(1-(2-butyl)-5-oxo-1,5-dihydro-[1,2,4]triazol-4-yl)phenyl]piperazin-1-yl}phenoxymethyl)-2-(2,4-dichlorophenyl)-[1,3]dioxolan-2-ylmethyl]-1H-[1,2,4]triazol-4-ium bromide] reads 400 µg/mL.
With `CC(=O)Oc1c(C)cc(C[n+]2ccn(CC3(c4ccc(Cl)cc4Cl)OCC(COc4ccc(N5CCN(C(C)=O)CC5)cc4)O3)c2)cc1C` (stereo not drawn) [Example 4, 1-(4-Acetoxy-3,5-dimethyl-benxyl)-3-[(2R*,4S*)-4-[4-(4-acetyl-piperazin-1-yl)-phenoxymethyl]-2-(2,4-dichloro-phenyl)-[1,3]dioxolan-2-ylmethyl]-3H-imidazol-1-ium bromide], in series [2] (ketoconazole formed, incubation time 20 min, read-out: Observed (%) KCZ), the metabolised at 20 min was 74%. In addition, the remaining at 20 min in series [2] (remaining parent compound, incubation time 20 min, read-out: Observed (%) Comp. I) came out at 19%.
On to `CC(=O)Oc1c(Cl)cc(C[n+]2ccn(CC3(c4ccc(Cl)cc4Cl)OCC(COc4ccc(N5CCN(C(C)=O)CC5)cc4)O3)c2)cc1Cl` (stereo not drawn) [Example 6, 1-(4-Acetoxy-3,5-dichloro-benzyl)-3-[(2R*,4S*)-[4-[4-(4-acetyl-piperazin-1-yl)-phenoxymethyl]-2-(2,4-dichloro-phenyl)-[1,3]dioxolan-2-ylmethyl]-3H-imidazol-1-ium bromide], for which the solubility in series [1] (setting [5]) is 6500 µg/mL.
As to `CO[C@H]1[C@@H](Cn2c[n+](Cc3cc(C)c(OC(C)=O)c(C)c3)cn2)[C@H](CCc2ccc(C)cc2)CCC1(C)C.[Br-]` [Example 8, 4-(4-acetoxy-3,5-dimethyl-benzyl)-1-[(1R,2S,6R)-2-methoxy-3,3-dimethyl-6-(2-p-tolyl-ethyl)-cyclohexylmethyl]-1H-[1,2,4]triazol-4-ium bromide], the solubility in series [1] (distilled water, water) is 14000 µg/mL.
On to `CC(=O)N1CCN(c2ccc(OCC3COC(Cn4cc[n+](Cc5ccc(OC(=O)C(C)(C)C)cc5)c4)(c4ccc(Cl)cc4Cl)O3)cc2)CC1` (stereo not drawn) [Example 10, 3-[(2R*,4S*)-4-[4-(4-Acetylpiperazin-1-yl)phenoxymethyl]-2-(2,4-dichlorophenyl)-[1,3]dioxolan-2-ylmethyl]-1-[4-(2,2-dimethylpropionyloxy)benzyl]-3H-imidazol-1-ium bromides], for which the metabolised at 10 min in series [2] (ketoconazole formed, incubation time 10 min, read-out: Observed (%) KCZ) came out at 80%. Also, the remaining at 10 min in series [2] (remaining parent compound, incubation time 10 min, read-out: Observed (%) Comp. I) is under 5%.
In the case of `COc1cc(C[n+]2ccn(CC3(c4ccc(Cl)cc4Cl)OCC(COc4ccc(N5CCN(C(C)=O)CC5)cc4)O3)c2)ccc1OC(C)=O` (centres unmarked) [Example 12], the solubility in series [1] (setting [5]) was 5000 µg/mL.
For `Cc1cc(C[n+]2cnn(C[C@](O)(c3ccc(F)cc3F)[C@@H](C)c3nc(-c4ccc(C#N)cc4)cs3)c2)cc(C)c1OC(=O)[C@@H]1CCCN1` [Example 16, 1-[(2R,3R)-3-[4-(4-Cyanophenyl)-thiazol-2-yl]-2-(2,4-difluorophenyl)-2-hydroxybutyl]-4-[(S)-3,5-dimethyl-4-(pyrrolidine-2-carbonyloxy)-benzyl]-1H-[1,2,4]triazol-4-ium bromide trifluoroacetic acid salt], the ED50 in the series with Candida albicans (setting [9]) is 3.5 µmol/kg; with Candida albicans (setting [10]), under 2.1 µmol/kg; in the series on Aspergillus fumigatus [3] (setting [11]), 17 µmol/kg; with Aspergillus fumigatus [3] (setting [12]), 18 µmol/kg; with Aspergillus fumigatus [4] (setting [13]), over 35 µmol/kg; in the series on Aspergillus fumigatus [4] (setting [14]), over 55 µmol/kg.
Take `CNCC(=O)Oc1c(C)cc(C[n+]2cnn(C[C@](O)(c3ccc(F)cc3F)[C@@H](C)c3nc(-c4ccc(C#N)cc4)cs3)c2)cc1C` [Example 23, 1-[(2R,3R)-3-[4-(4-Cyanophenyl)thiazol-2-yl]-2-(2,4-difluorophenyl)-2-hydroxybutyl]-4-[3,5-dimethyl-4-[(methylamino)acetoxy]benzyl]-1H-[1,2,4]triazol-4-ium bromide trifluoroacetic acid salt]: the ED50 in the series on Candida albicans (setting [9]) is 4.6 µmol/kg; in the series on Candida albicans (setting [10]), 4.7 µmol/kg; with Aspergillus fumigatus [3] (setting [11]) it was 8 µmol/kg; in the series with Aspergillus fumigatus [3] (setting [12]), 17 µmol/kg; in the series on Aspergillus fumigatus [4] (setting [13]), 17 µmol/kg; in the series on Aspergillus fumigatus [4] (setting [14]), 19 µmol/kg.
For `OC(Cn1cncn1)(Cn1cncn1)c1ccc(F)cc1F` [Fluconazole, reference compound], the ED50 in the series with Candida albicans (po, read-out: Effective dose 50% (ED50) Systemic candidiasis p.o.) is over 2.9 µmol/kg.
`CCC(C)n1ncn(-c2ccc(N3CCN(c4ccc(OCC5COC(Cn6cncn6)(c6ccc(Cl)cc6Cl)O5)cc4)CC3)cc2)c1=O` (centres unmarked) [Itraconazole, reference compound]: the ED50 with Aspergillus fumigatus [4] (po, read-out: Effective dose 50% (ED50) Systemic aspergillosis p.o.) is 17 µmol/kg.
